PubChem BioAssay (NCI)
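Compound exposure: 48 hours, 5 concentrations, 96-well plates. TGI: concentration producing complete growth inhibition.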

Columns and labels:
Experiment in all cases: NCI anticancer screen, dose series, 48 h
HT29 colon = test system: HT29 colon
ACHN renal = test system: ACHN renal
COLO 205 colon = test system: COLO 205 colon
UACC-257 melanoma = test system: UACC-257 melanoma
NCI-H23 lung = test system: NCI-H23 lung
TK-10 renal = test system: TK-10 renal
EKVX NSCLC = test system: EKVX NSCLC
RXF 393 renal = test system: RXF 393 renal
HL-60(TB) leukemia = test system: HL-60(TB) leukemia
OVCAR-5 ovarian = test system: OVCAR-5 ovarian
SR leukemia = test system: SR leukemia
OVCAR-4 ovarian = test system: OVCAR-4 ovarian
SN12C renal = test system: SN12C renal
NCI-H226 lung = test system: NCI-H226 lung
NCI/ADR-RES ovarian = test system: NCI/ADR-RES ovarian
MDA-N = test system: MDA-N
SF-539 CNS = test system: SF-539 CNS
KM12 colon = test system: KM12 colon
M14 melanoma = test system: M14 melanoma
SNB-75 CNS = test system: SNB-75 CNS
RPMI-8226 leukemia = test system: RPMI-8226 leukemia
HS 578T breast = test system: HS 578T breast
SK-MEL-5 melanoma = test system: SK-MEL-5 melanoma
U251 CNS = test system: U251 CNS
OVCAR-8 ovarian = test system: OVCAR-8 ovarian
SK-MEL-28 melanoma = test system: SK-MEL-28 melanoma
BT-549 breast = test system: BT-549 breast
SNB-19 CNS = test system: SNB-19 CNS
HCT-15 colon = test system: HCT-15 colon
T-47D breast = test system: T-47D breast
DU-145 prostate = test system: DU-145 prostate
HOP-92 NSCLC = test system: HOP-92 NSCLC
NCI-H522 lung = test system: NCI-H522 lung
UO-31 renal = test system: UO-31 renal
MCF7 breast = test system: MCF7 breast
SK-MEL-2 melanoma = test system: SK-MEL-2 melanoma
CAKI-1 renal = test system: CAKI-1 renal
IGROV1 ovarian = test system: IGROV1 ovarian
NCI-H460 lung = test system: NCI-H460 lung
MOLT-4 leukemia = test system: MOLT-4 leukemia
K-562 leukemia = test system: K-562 leukemia
LOX IMVI melanoma = test system: LOX IMVI melanoma
HCC-2998 colon = test system: HCC-2998 colon
A549 NSCLC = test system: A549 NSCLC
MDA-MB-435 = test system: MDA-MB-435
HCT-116 colon = test system: HCT-116 colon
SW-620 colon = test system: SW-620 colon
MDA-MB-231 breast = test system: MDA-MB-231 breast
PC-3 prostate = test system: PC-3 prostate
UACC-62 melanoma = test system: UACC-62 melanoma
A498 renal = test system: A498 renal
786-0 renal = test system: 786-0 renal
MALME-3M melanoma = test system: MALME-3M melanoma
CCRF-CEM leukemia = test system: CCRF-CEM leukemia
SF-268 CNS = test system: SF-268 CNS
SK-OV-3 ovarian = test system: SK-OV-3 ovarian
SF-295 CNS = test system: SF-295 CNS
HOP-62 NSCLC = test system: HOP-62 NSCLC
OVCAR-3 ovarian = test system: OVCAR-3 ovarian

## O=C1CSC2(CC(/C=C/c3ccccc3Br)=NN2c2cccc(S(=O)(=O)O)c2)N1c1nc2ccccc2s1 (stereo not drawn)
HT29 colon
  TGI: > 100 µM
ACHN renal
  TGI: > 100 µM
COLO 205 colon
  TGI: > 100 µM
UACC-257 melanoma
  TGI: > 100 µM
NCI-H23 lung
  TGI: > 100 µM
TK-10 renal
  TGI: > 100 µM
EKVX NSCLC
  TGI: > 100 µM
RXF 393 renal
  TGI: > 100 µM
HL-60(TB) leukemia
  TGI: > 100 µM
OVCAR-5 ovarian
  TGI: > 100 µM
SR leukemia
  TGI: > 100 µM
OVCAR-4 ovarian
  TGI: > 100 µM
SN12C renal
  TGI: > 100 µM
NCI-H226 lung
  TGI: > 100 µM
NCI/ADR-RES ovarian
  TGI: > 100 µM
MDA-N
  TGI: > 100 µM
SF-539 CNS
  TGI: > 100 µM
KM12 colon
  TGI: > 100 µM
M14 melanoma
  TGI: > 100 µM
SNB-75 CNS
  TGI: > 100 µM
RPMI-8226 leukemia
  TGI: > 100 µM
HS 578T breast
  TGI: > 100 µM
SK-MEL-5 melanoma
  TGI: > 100 µM
U251 CNS
  TGI: > 100 µM
OVCAR-8 ovarian
  TGI: > 100 µM
SK-MEL-28 melanoma
  TGI: > 100 µM
BT-549 breast
  TGI: > 100 µM
SNB-19 CNS
  TGI: > 100 µM
HCT-15 colon
  TGI: > 100 µM
T-47D breast
  TGI: > 100 µM
DU-145 prostate
  TGI: > 100 µM
HOP-92 NSCLC
  TGI: > 100 µM
NCI-H522 lung
  TGI: > 100 µM
UO-31 renal
  TGI: > 100 µM
MCF7 breast
  TGI: > 100 µM
SK-MEL-2 melanoma
  TGI: > 100 µM
CAKI-1 renal
  TGI: > 100 µM
IGROV1 ovarian
  TGI: > 100 µM
NCI-H460 lung
  TGI: > 100 µM
MOLT-4 leukemia
  TGI: > 100 µM
K-562 leukemia
  TGI: > 100 µM
LOX IMVI melanoma
  TGI: > 100 µM
HCC-2998 colon
  TGI: > 100 µM
A549 NSCLC
  TGI: > 100 µM
MDA-MB-435
  TGI: > 100 µM
HCT-116 colon
  TGI: > 100 µM
SW-620 colon
  TGI: > 100 µM
MDA-MB-231 breast
  TGI: > 100 µM
PC-3 prostate
  TGI: > 100 µM
UACC-62 melanoma
  TGI: > 100 µM
A498 renal
  TGI: > 100 µM
786-0 renal
  TGI: > 100 µM
MALME-3M melanoma
  TGI: > 100 µM
CCRF-CEM leukemia
  TGI: > 100 µM
SF-268 CNS
  TGI: > 100 µM

## O=C1OI(C#Cc2ccccc2)c2ccccc21
HT29 colon
  TGI: 20.1 µM
ACHN renal
  TGI: 5.42 µM
COLO 205 colon
  TGI: 9.11 µM
UACC-257 melanoma
  TGI: 25.2 µM
NCI-H23 lung
  TGI: 10.8 µM
TK-10 renal
  TGI: 13.5 µM
EKVX NSCLC
  TGI: 9.67 µM
RXF 393 renal
  TGI: 97.5 µM
HL-60(TB) leukemia
  TGI: 7.82 µM
OVCAR-5 ovarian
  TGI: > 40.1 µM
SR leukemia
  TGI: 5.53 µM
OVCAR-4 ovarian
  TGI: 12.3 µM
SN12C renal
  TGI: 22.6 µM
NCI-H226 lung
  TGI: 19 µM
NCI/ADR-RES ovarian
  TGI: > 100 µM
MDA-N
  TGI: 30.6 µM
SF-539 CNS
  TGI: 5.58 µM
KM12 colon
  TGI: 9.31 µM
M14 melanoma
  TGI: > 49.8 µM
SK-OV-3 ovarian
  TGI: 26.1 µM
SNB-75 CNS
  TGI: 10.3 µM
SF-295 CNS
  TGI: 28.4 µM
RPMI-8226 leukemia
  TGI: 4.24 µM
HS 578T breast
  TGI: 26.6 µM
SK-MEL-5 melanoma
  TGI: 6.77 µM
U251 CNS
  TGI: 6.13 µM
OVCAR-8 ovarian
  TGI: 36.4 µM
SK-MEL-28 melanoma
  TGI: 21.2 µM
BT-549 breast
  TGI: 8.22 µM
SNB-19 CNS
  TGI: 21.8 µM
HCT-15 colon
  TGI: 11.2 µM
T-47D breast
  TGI: 10.8 µM
DU-145 prostate
  TGI: 23.4 µM
HOP-92 NSCLC
  TGI: 5.66 µM
UO-31 renal
  TGI: 14.3 µM
MCF7 breast
  TGI: 14.9 µM
SK-MEL-2 melanoma
  TGI: 44.1 µM
CAKI-1 renal
  TGI: 6.5 µM
IGROV1 ovarian
  TGI: 6.17 µM
NCI-H460 lung
  TGI: 13.4 µM
MOLT-4 leukemia
  TGI: 5.34 µM
K-562 leukemia
  TGI: 6.7 µM
HOP-62 NSCLC
  TGI: 22.6 µM
LOX IMVI melanoma
  TGI: > 100 µM
HCC-2998 colon
  TGI: 21.4 µM
OVCAR-3 ovarian
  TGI: 10.6 µM
A549 NSCLC
  TGI: 39.7 µM
MDA-MB-435
  TGI: 14.1 µM
HCT-116 colon
  TGI: 5.8 µM
SW-620 colon
  TGI: 5.14 µM
MDA-MB-231 breast
  TGI: > 55.3 µM
PC-3 prostate
  TGI: 18.3 µM
UACC-62 melanoma
  TGI: 19.3 µM
A498 renal
  TGI: 16.4 µM
786-0 renal
  TGI: 11.2 µM
MALME-3M melanoma
  TGI: 5.64 µM
CCRF-CEM leukemia
  TGI: 4.01 µM
SF-268 CNS
  TGI: 9.96 µM
